Source: patent publication US9416115B2, “Fused heterocyclic compounds as ion channel modulators” (Gilead Sciences, Inc., priority 2013, dated 2016)

Experiments:
[1] = target: wild-type human cardiac sodium channel, hNav1.5 (Homo sapiens, UniProt Q14524); test: Late INa screening assay (QPatch whole cell patch clamp, Tefluthrin-induced late current); assay type: cell-based; conditions: HEK293 hNav1.5, percent block of late INa
Experimental: The cardiac late sodium current (Late INa) and peak sodium current (Peak INa) assays are performed on an automated electrophysiology platform, QPatch 16X or QPatch HT (Sophion Bioscience, Copenhagen, Denmark) using the whole cell patch clamp technique to measure currents through the cell membrane. The assay uses an HEK293 (human embryonic kidney) cell line heterologously expressing the wild-type human cardiac sodium channel, hNav1.5, purchased from Millipore (Billerica, Mass.). No beta subunits were coexpressed with the Na channel alpha subunit. Cells are maintained with standard tissue culture procedures and stable channel expression is maintained with 400 μg/mL Geneticin in the culture medium. Experiments are carried out at 23-25° C.
For both the Late INa and Peak INa assays, series resistance compensation is set to 100% and series resistance and whole-cell compensation are performed automatically. Currents are digitized at 25 kHz and low-pass filtered at 5 kHz and stored in the Sophion Bioscience Oracle database (Sophion Bioscience, Copenhagen, Denmark). Analysis is performed using QPatch Assay software and data are compiled in Excel 2010 (Microsoft, Seattle, Wash., U.S.A.).
Compound stocks are routinely made by the Gilead Sample Bank in vials to 10 mM in dimethyl sulfoxide (DMSO). In some cases, when compounds are not soluble in DMSO, they are made in 100% ethanol. Stocks are sonicated as necessary. The extracellular solution for screening Late INa is composed of: 140 mM NaCl, 4 mM KCl, 1.8 mM CaCl2, 1 mM MgCl2, 10 mM HEPES and 10 mM Dextrose with pH adjusted to 7.35 using NaOH. The intracellular solution contains: 105 mM CsF, 20 mM CsCl, 10NaF, 2 mM EGTA, 10 mM HEPES and 10 mM Dextrose with pH adjusted to 7.35 with CsOH. Compounds are diluted in extracellular solution using a MicroLab Nimbus (Hamilton Robotics, Reno, Nev.) to between 0.3 and 3 μM in glass vials and transferred to glass well plates before robotic addition to the cells. The 0 mM Na extracellular solution (0Na-ECF) used at the end of each experiment for the Late INa and Peak INa assays to measure baseline current contains: 140 Choline-Cl; 4 mM KCl, 1.8 mM CaCl2; 1 mM MgCl2; 10 mM HEPES and 10 mM Dextrose with pH was adjusted to 7.35 with CsOH.
For the Late INa assay, sodium channels are activated every 10 seconds (0.1 Hz) by depolarizing the cell membrane to −20 mV for 250 milliseconds (ms) from a holding potential of −120 mV.
Compounds were tested to determine their activity in blocking the late sodium current. Late INa was generated by adding 10 μM Tefluthrin (pyrethroid) to the extracellular solution. For the purposes of the screening, Late INa is defined as the mean current between […] during the voltage step to −20 mV. After establishing the whole cell recording configuration, Late INa activator is added to each well 4 times over a 15 minute period so that the late component of the Na current reaches a stable value. Compounds were then added (typically at 0.3 or 1 μM), in the presence of the Late Na^+ activator, with 3 additions over the course of 5 minutes. Measurements were made at the end of exposure to the third compound addition and values were normalized to the current level when all Na^+ was removed from the extracellular solution after two additions of 0Na-ECF.
Results are reported as percent block of late INa and results were analyzed by incorporating rundown correction for the Late INa.

[2] = target: hNav1.1 (SCN1A) (Homo sapiens, UniProt P35498); test: Use-dependent inhibition of the CNS Nav1.1 sodium channel; assay type: cell-based; conditions: use-dependent block, 25 Hz, pulse 20, read-out: Nav1.1 UDB 25 Hz 10 uM
Experimental: HEK-293 cells stably expressing wild-type (WT) hNav1.1 (SCN1A, NCBI# AB09354) were obtained from Millipore (Cat. # CYL3009) were used to record INa. Cells are maintained with standard tissue culture procedures and stable channel expression is maintained with 400 ug/mL G418 in the culture medium. Unless otherwise noted, all reagents are purchased from Sigma-Aldrich (St Louis, Mo., U.S.A.).
Assays measuring Use-Dependent Block (UDB) of Nav1.2 are performed on an automated electrophysiology platform, QPatch 16X or QPatch HT (Sophion Bioscience, Copenhagen, Denmark), using the whole cell patch clamp technique to measure currents through the cell membrane. Series resistance compensation is set to 100% and series resistance and whole-cell compensation are performed automatically. Currents stored in the Sophion Bioscience Oracle database (Sophion Bioscience, Copenhagen, Denmark). Analysis is performed using QPatch Assay software and data are compiled in Excel 2010 (Microsoft, Seattle, Wash., U.S.A.).
The internal (pipette) solution consists of (in mM) 105 CsF, 10 NaF, 20 CsCl, 2 EGTA, 10 HEPES, 10 Dextrose with a pH of 7.35 and osmolarity of 300 mOsmol/kg. The external (bath) solution contains in (mM): 145 NaCl, 4 KCl, 1.8 CaCl2, 1 MgCl2, 10 dextrose, 10 HEPES, with a pH of 7.35 and osmolarity of 310 mOsmol/kg. Experiments are carried out at 23-25° C.
Compound stocks are routinely made by the Gilead Sample Bank in vials to 10 mM in dimethyl sulfoxide (DMSO). In some cases, when compounds are not soluble in DMSO, they are made in 100% ethanol. Stocks are sonicated as necessary. […]
Cells are allowed to stabilize for 10 min after establishment of the whole-cell configuration before current is measured. The test compound is applied 2 times at 60 second intervals. After the second compound addition, a 200 second wait period was imposed to allow for equilibration. Leak currents are subtracted by using an online P/4 procedure and all currents are low-pass Bessel filtered at 5 kHz and digitized at […].
Use-dependent block of Nav1.2 peak current is measured during pulse number 20 of a voltage pulse train (0 mV, 20 ms, 20 pulses, 25 Hz) from a holding potential of −120 mV. Currents are normalized to the peak current recorded in response to the first pulse in each frequency train. The voltage protocol for UDB was performed in the absence and presence of compound and percentage inhibition was calculated with respect to the compound free condition. Results are presented as mean percentage inhibition and data analysis is performed using QPatch Assay Software 4.0, and Excel 2002 (Microsoft, Seattle, Wash., U.S.A.).

Sequence of wild-type human cardiac sodium channel, hNav1.5 (Q14524 whole entry): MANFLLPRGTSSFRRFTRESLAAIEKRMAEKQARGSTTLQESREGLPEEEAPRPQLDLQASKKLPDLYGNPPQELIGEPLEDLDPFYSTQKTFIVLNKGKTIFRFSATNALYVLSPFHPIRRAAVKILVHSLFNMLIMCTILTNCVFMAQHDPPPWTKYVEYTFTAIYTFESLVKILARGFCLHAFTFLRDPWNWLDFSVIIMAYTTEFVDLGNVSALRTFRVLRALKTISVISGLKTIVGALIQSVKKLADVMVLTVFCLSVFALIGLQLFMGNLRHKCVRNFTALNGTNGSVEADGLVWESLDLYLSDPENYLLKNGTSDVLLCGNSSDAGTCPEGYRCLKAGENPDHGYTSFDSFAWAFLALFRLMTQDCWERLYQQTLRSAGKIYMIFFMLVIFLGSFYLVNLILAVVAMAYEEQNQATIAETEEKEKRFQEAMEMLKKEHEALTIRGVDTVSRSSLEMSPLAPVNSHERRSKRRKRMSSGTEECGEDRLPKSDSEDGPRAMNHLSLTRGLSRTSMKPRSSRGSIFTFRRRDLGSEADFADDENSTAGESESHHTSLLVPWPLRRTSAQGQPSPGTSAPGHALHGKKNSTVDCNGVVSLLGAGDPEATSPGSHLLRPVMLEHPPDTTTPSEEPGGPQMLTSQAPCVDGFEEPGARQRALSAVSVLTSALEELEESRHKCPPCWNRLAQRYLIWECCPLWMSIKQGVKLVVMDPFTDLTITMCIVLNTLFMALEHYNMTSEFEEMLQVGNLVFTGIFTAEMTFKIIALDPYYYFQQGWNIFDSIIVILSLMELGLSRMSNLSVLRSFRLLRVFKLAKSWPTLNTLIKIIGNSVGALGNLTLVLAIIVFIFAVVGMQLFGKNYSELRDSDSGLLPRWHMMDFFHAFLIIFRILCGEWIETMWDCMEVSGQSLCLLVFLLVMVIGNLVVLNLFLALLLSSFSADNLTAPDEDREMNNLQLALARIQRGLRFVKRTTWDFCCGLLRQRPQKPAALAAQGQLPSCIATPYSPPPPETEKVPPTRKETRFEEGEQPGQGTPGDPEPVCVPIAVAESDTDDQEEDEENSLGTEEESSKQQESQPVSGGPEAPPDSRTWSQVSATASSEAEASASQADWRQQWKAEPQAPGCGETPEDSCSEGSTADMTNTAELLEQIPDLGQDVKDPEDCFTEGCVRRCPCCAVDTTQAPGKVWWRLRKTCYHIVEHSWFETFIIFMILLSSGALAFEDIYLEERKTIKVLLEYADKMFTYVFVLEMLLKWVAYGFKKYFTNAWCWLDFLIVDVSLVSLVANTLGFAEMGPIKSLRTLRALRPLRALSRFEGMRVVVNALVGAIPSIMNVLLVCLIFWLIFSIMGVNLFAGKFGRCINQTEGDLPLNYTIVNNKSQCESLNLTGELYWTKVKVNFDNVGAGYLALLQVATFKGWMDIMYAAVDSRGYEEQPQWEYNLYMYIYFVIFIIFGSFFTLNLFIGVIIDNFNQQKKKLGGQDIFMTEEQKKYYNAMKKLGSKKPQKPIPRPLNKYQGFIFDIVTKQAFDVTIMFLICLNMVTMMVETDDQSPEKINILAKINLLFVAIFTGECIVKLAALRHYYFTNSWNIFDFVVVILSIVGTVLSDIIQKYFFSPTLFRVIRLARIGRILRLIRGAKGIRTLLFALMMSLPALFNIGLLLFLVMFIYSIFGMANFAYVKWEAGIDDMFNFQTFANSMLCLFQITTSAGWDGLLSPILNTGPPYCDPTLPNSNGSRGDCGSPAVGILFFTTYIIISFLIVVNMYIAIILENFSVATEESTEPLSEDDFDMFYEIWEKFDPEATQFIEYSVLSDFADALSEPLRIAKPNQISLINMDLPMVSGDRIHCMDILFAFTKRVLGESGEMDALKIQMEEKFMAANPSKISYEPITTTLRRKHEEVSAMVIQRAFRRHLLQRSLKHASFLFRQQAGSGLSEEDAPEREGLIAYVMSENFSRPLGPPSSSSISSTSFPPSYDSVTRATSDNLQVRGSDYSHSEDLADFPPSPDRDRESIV

| SMILES | inhibition at 1 µM [1] [%] | inhibition at 10 µM [2] [%] | inhibition at 0.3 µM [1] [%] |
| --- | --- | --- | --- |
| Fc1cc(C(F)(F)F)ccc1-c1ccc2onc(OCc3ncccn3)c2c1 [Example 6, 5-(2-fluoro-4-(trifluoromethyl)phenyl)-3-(pyrimidin-2-ylmethoxy)benzo[d]isoxazole] | 51.1 | < 5 | – |
| FC(F)(F)Oc1ccc(-c2ccc3onc(OC[C@@H]4COCCN4)c3c2)cc1 [Example 113, (S)-3-(morpholin-3-ylmethoxy)-5-(4-(trifluoromethoxy)phenyl)benzo[d]isoxazole] | 79.9 | 88.4 | 43.9 |
| Cc1nnc(COc2noc3c(F)cc(-c4ccc(OC(F)(F)F)cc4)cc23)o1 [Example 155, 7-fluoro-3-((5-methyl-1,3,4-oxadiazol-2-yl)methoxy)-5-(4-(trifluoromethoxy)phenyl)benzo[d]isoxazole] | 69.2 | 63.5 | 47 |
| FC(F)(F)Oc1ccc(-c2ccc3onc(-n4cnc(C(F)(F)F)c4)c3c2)cc1 [Example 145, 5-(4-(trifluoromethoxy)phenyl)-3-(4-(trifluoromethyl)-1H-imidazol-1-yl)benzo[d]isoxazole] | 84.9 | 81.4 | 61.7 |
| FC(F)(F)Oc1ccc(-c2ccc3onc(-n4cnc(Cl)c4)c3c2)cc1 [Example 140, 3-(4-chloro-1H-imidazol-1-yl)-5-(4-(trifluoromethoxy)phenyl)benzo[d]isoxazole] | 37.6 | < 5 | – |
| FC(F)(F)Oc1ccc(-c2ccc3onc(OCCn4cncn4)c3c2)cc1 [Example 58, 3-(2-(1H-1,2,4-triazol-1-yl)ethoxy)-5-(4-(trifluoromethoxy)phenyl)benzo[d]isoxazole] | 55 | 43.5 | 36.7 |
| FC(F)(F)Oc1ccc(-c2ccc3onc(NCC4CC4)c3c2)cc1 [Example 128, N-(cyclopropylmethyl)-5-(4-(trifluoromethoxy)phenyl)benzo[d]isoxazol-3-amine] | 42 | < 5 | – |
| CCn1ccnc1COc1noc2ccc(-c3ccc(OC(F)(F)F)cc3)cc12 [Example 47, 3-((1-ethyl-1H-imidazol-2-yl)methoxy)-5-(4-(trifluoromethoxy)phenyl)benzo[d]isoxazole] | 60.2 | 55.5 | 20 |
| CC(C)NC(=O)COc1noc2ccc(-c3ccc(OC(F)(F)F)cc3)cc12 [Example 122, N-isopropyl-2-((5-(4-(trifluoromethoxy)phenyl)benzo[d]isoxazol-3-yl)oxy)acetamide] | 41.3 | < 5 | – |
| CCN(CC)C(=O)COc1noc2ccc(-c3ccc(OC(F)(F)F)cc3)cc12 [Example 150, N,N-diethyl-2-((5-(4-(trifluoromethoxy)phenyl)benzo[d]isoxazol-3-yl)oxy)acetamide] | 68.2 | 62.8 | 49.4 |
| FC(F)(F)Oc1ccc(-c2ccc3onc(OCC4CCO4)c3c2)cc1 (stereo not drawn) [Example 42, 3-(oxetan-2-ylmethoxy)-5-(4-(trifluoromethoxy)phenyl)benzo[d]isoxazole] | 57.3 | < 5 | 17.5 |
| Fc1cc(-c2ccc(OC(F)(F)F)cc2)cc2c(OCc3nnc(C4CC4)o3)noc12 [Example 104, 3-((5-cyclopropyl-1,3,4-oxadiazol-2-yl)methoxy)-7-fluoro-5-(4-(trifluoromethoxy)phenyl)benzo[d]isoxazole] | 38.6 | 53.1 | – |
| Cc1cc(COc2noc3ccc(-c4ccc(OC(F)(F)F)cc4)cc23)on1 [Example 102, 3-((3-methylisoxazol-5-yl)methoxy)-5-(4-(trifluoromethoxy)phenyl)benzo[d]isoxazole] | 43.1 | < 5 | – |
| FC(F)(F)c1ccc(-c2ccc3onc(OCc4ncccn4)c3c2)cc1 [Example 9, 3-(pyrimidin-2-ylmethoxy)-5-(4-(trifluoromethyl)phenyl)benzo[d]isoxazole] | 58.9 | < 5 | 36.4 |
| FC(F)(F)Oc1ccc(-c2ccc3onc(OCc4nnc(C5CC5)s4)c3c2)cc1 [Example 154, 3-((5-cyclopropyl-1,3,4-thiadiazol-2-yl)methoxy)-5-(4-(trifluoromethoxy)phenyl)benzo[d]isoxazole] | 39.2 | 19.8 | – |
| FC(F)(F)Oc1ccc(-c2ccc3onc(OCCNc4ncccn4)c3c2)cc1 [Example 123, N-(2-((5-(4-(trifluoromethoxy)phenyl)benzo[d]isoxazol-3-yl)oxy)ethyl)pyrimidin-2-amine] | 36.3 | < 5 | – |
| OCc1cn(-c2noc3ccc(-c4ccc(OC(F)(F)F)cc4)cc23)cn1 [Example 146, (1-(5-(4-(trifluoromethoxy)phenyl)benzo[d]isoxazol-3-yl)-1H-imidazol-4-yl)methanol] | 48.4 | 87.3 | – |
| CC(C)(C)c1cn(-c2noc3ccc(-c4ccc(OC(F)(F)F)cc4)cc23)cn1 [Example 143, 3-(4-(tert-butyl)-1H-imidazol-1-yl)-5-(4-(trifluoromethoxy)phenyl)benzo[d]isoxazole] | 60.3 | 66.6 | 35.9 |
| CC(C)[C@H](N)COc1noc2ccc(-c3ccc(OC(F)(F)F)cc3)cc12 [Example 118, (S)-3-methyl-1-((5-(4-(trifluoromethoxy)phenyl)benzo[d]isoxazol-3-yl)oxy)butan-2-amine] | 66.1 | 89.4 | 22.5 |
